Several values for one entry are separate records, joined by “and”; a condition that tells them apart may be missing. Equal values may be shown once. Toxic doses and inconclusive results are not listed.
Tested on: L1210 leukemia ip in BDF1 mice, survival T/C
Experiment: NCI In Vivo Anticancer Drug Screen. Data for tumor model L1210 Leukemia (intraperitoneal) in B6D2F1 (BDF1) mice
Settings: endpoint: mean survival time, higher = longer survival
Outline: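 Ratio derived from survival: compound-dosed mice over vehicle-dosed mice, all bearing a transplantable tumor.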

[1] = dose: 100.0 mg/kg/injection, schedule: Q01DX001 (ip), vehicle: carboxymethylcellulose (CMC)
[2] = dose: 200.0 mg/kg/injection, schedule: Q01DX001 (ip), vehicle: carboxymethylcellulose (CMC)
[3] = dose: 400.0 mg/kg/injection, schedule: Q01DX001 (ip), vehicle: carboxymethylcellulose (CMC)
[4] = dose: 100.0 mg/kg/injection, schedule: Q01DX009 (ip), vehicle: Klucel (hydroxypropylcellulose) (HPC)
[5] = dose: 100.0 mg/kg/injection, schedule: Q04DX003 (ip), vehicle: Klucel (hydroxypropylcellulose) (HPC)
[6] = dose: 200.0 mg/kg/injection, schedule: Q01DX009 (ip), vehicle: Klucel (hydroxypropylcellulose) (HPC)
[7] = dose: 200.0 mg/kg/injection, schedule: Q04DX003 (ip), vehicle: Klucel (hydroxypropylcellulose) (HPC)
[8] = dose: 400.0 mg/kg/injection, schedule: Q04DX003 (ip), vehicle: Klucel (hydroxypropylcellulose) (HPC)
[9] = dose: 100.0 mg/kg/injection, schedule: Q04DX002 (ip), vehicle: saline
[10] = dose: 12.5 mg/kg/injection, schedule: Q04DX003 (ip), vehicle: Klucel (hydroxypropylcellulose) (HPC)
[11] = dose: 25.0 mg/kg/injection, schedule: Q04DX003 (ip), vehicle: Klucel (hydroxypropylcellulose) (HPC)
[12] = dose: 50.0 mg/kg/injection, schedule: Q04DX003 (ip), vehicle: Klucel (hydroxypropylcellulose) (HPC)
[13] = dose: 100.0 mg/kg/injection, schedule: Q01DX001 (ip), vehicle: saline
[14] = dose: 200.0 mg/kg/injection, schedule: Q01DX001 (ip), vehicle: saline
[15] = dose: 400.0 mg/kg/injection, schedule: Q01DX001 (ip), vehicle: saline
[16] = dose: 100.0 mg/kg/injection, schedule: Q04DX002 (ip), vehicle: Klucel (hydroxypropylcellulose) (HPC)
[17] = dose: 200.0 mg/kg/injection, schedule: Q04DX002 (ip), vehicle: Klucel (hydroxypropylcellulose) (HPC)

## S=C(N/N=C\c1ccc(Cl)cc1Cl)Nc1ccc2cn[nH]c2c1
dose: 50.0 mg/kg/injection, schedule: Q01DX001 (ip), vehicle: carboxymethylcellulose (CMC)
  T/C: 102 % of control
[1]
  T/C: 98 % of control
[2]
  T/C: 86 % of control
[3]
  T/C: 91 % of control

## FC(Cl)C(F)(F)Br (stereo unspecified)
dose: 75.0 mg/kg/injection, schedule: Q01DX005 (ip), vehicle: saline
  T/C: 95 % of control
dose: 150.0 mg/kg/injection, schedule: Q01DX005 (ip), vehicle: saline
  T/C: 101 % of control
dose: 300.0 mg/kg/injection, schedule: Q01DX005 (ip), vehicle: saline
  T/C: 98 % of control
dose: 600.0 mg/kg/injection, schedule: Q01DX001 (ip), vehicle: acetone
  T/C: 101 % of control

## CCN(C(=O)c1ccc(Cl)cc1Cl)c1ccccc1C
[4]
  T/C: 98 % of control
[5]
  T/C: 97 % of control
[6]
  T/C: 96 % of control
[7]
  T/C: 108 % of control
dose: 400.0 mg/kg/injection, schedule: Q01DX009 (ip), vehicle: Klucel (hydroxypropylcellulose) (HPC)
  T/C: 101 % of control
[8]
  T/C: 98 % of control

## CCCC[N+]12CC=C3COC(=O)C(C)(O)C(C)(O)C(C)C(=O)OC(CC1)C32 (stereo unspecified)
dose: 50.0 mg/kg/injection, schedule: Q01DX009 (ip), vehicle: Klucel (hydroxypropylcellulose) (HPC)
  T/C: 92 % of control
[4]
  T/C: 95 % of control
[6]
  T/C: 100 % of control

## CCC(CC)NC(CC)COC(=O)c1ccc(N)cc1 (stereo unspecified)
dose: 75.0 mg/kg/injection, schedule: Q01DX001 (ip), vehicle: other
  T/C: 97 % of control
dose: 150.0 mg/kg/injection, schedule: Q01DX001 (ip), vehicle: other
  T/C: 107 % of control

## Nc1ccccc1SC1CC(=O)N(c2ccc(Br)cc2)C1=O (stereo unspecified)
dose: 100.0 mg/kg/injection, schedule: Q04DX002 (ip), vehicle: gum acacia
  T/C: 95 % of control
dose: 200.0 mg/kg/injection, schedule: Q04DX002 (ip), vehicle: gum acacia
  T/C: 88 % of control
dose: 400.0 mg/kg/injection, schedule: Q04DX002 (ip), vehicle: gum acacia
  T/C: 95 % of control

## CCCCCP(=O)(O)O
[9]
  T/C: 92 % of control
dose: 200.0 mg/kg/injection, schedule: Q04DX002 (ip), vehicle: saline
  T/C: 99 % of control

## C=CCc1cc(CN(CCOCC)Cc2cc(CC=C)cc(OC)c2O)c(O)c(OC)c1
[10]
  T/C: 97 % of control
[11]
  T/C: 95 % of control
[12]
  T/C: 94 % of control

## CN1CCN(C(=O)CCCCCCCCC(Br)CBr)CC1 (stereo unspecified)
dose: 15.0 mg/kg/injection, schedule: Q01DX001 (ip), vehicle: saline
  T/C: 103 % of control

## COc1cc(N(CCC#N)CCC#N)nc(OC)n1
dose: 50.0 mg/kg/injection, schedule: Q01DX009 (ip), vehicle: saline with Tween-80
  T/C: 96 % of control
dose: 100.0 mg/kg/injection, schedule: Q01DX009 (ip), vehicle: saline with Tween-80
  T/C: 92 % of control
dose: 200.0 mg/kg/injection, schedule: Q01DX009 (ip), vehicle: saline with Tween-80
  T/C: 92 % of control

## Cc1cc(O)c(C(N)=O)c(=O)[nH]1
[13]
  T/C: 95 % of control
[14]
  T/C: 98 % of control
[15]
  T/C: 101 % of control

## CCCCc1cc([N+](=O)[O-])cc([N+](=O)[O-])c1OCN1C(=O)C2C3CCC(O3)C2C1=O (stereo unspecified)
[16]
  T/C: 113 % of control
[17]
  T/C: 98 % of control
dose: 400.0 mg/kg/injection, schedule: Q04DX002 (ip), vehicle: Klucel (hydroxypropylcellulose) (HPC)
  T/C: 106 % of control

## CN=C([Se])NC
dose: 3.13 mg/kg/injection, schedule: Q01DX009 (ip), vehicle: saline with Tween-80
  T/C: 106 % of control
dose: 3.13 mg/kg/injection, schedule: Q04DX002 (ip), vehicle: saline with Tween-80
  T/C: 98 % of control
dose: 6.25 mg/kg/injection, schedule: Q01DX009 (ip), vehicle: saline with Tween-80
  T/C: 103 % of control
dose: 6.25 mg/kg/injection, schedule: Q04DX002 (ip), vehicle: saline with Tween-80
  T/C: 95 % of control
dose: 12.5 mg/kg/injection, schedule: Q01DX009 (ip), vehicle: saline with Tween-80
  T/C: 97 % of control
dose: 12.5 mg/kg/injection, schedule: Q04DX002 (ip), vehicle: saline with Tween-80
  T/C: 87 % of control

## O=C(NCc1ccccc1Cl)Nc1ccc(F)cc1
[1]
  T/C: 92 % of control
dose: 100.0 mg/kg/injection, schedule: Q01DX009 (ip), vehicle: carboxymethylcellulose (CMC)
  T/C: 92 % of control and 93 % of control
dose: 100.0 mg/kg/injection, schedule: Q04DX002 (ip), vehicle: carboxymethylcellulose (CMC)
  T/C: 95 % of control (2×) and 97 % of control
dose: 100.0 mg/kg/injection, schedule: Q04DX003 (ip), vehicle: carboxymethylcellulose (CMC)
  T/C: 95 % of control
[2]
  T/C: 96 % of control
dose: 200.0 mg/kg/injection, schedule: Q01DX009 (ip), vehicle: carboxymethylcellulose (CMC)
  T/C: 101 % of control
dose: 200.0 mg/kg/injection, schedule: Q04DX002 (ip), vehicle: carboxymethylcellulose (CMC)
  T/C: 94 % of control and 96 % of control and 88 % of control
dose: 200.0 mg/kg/injection, schedule: Q04DX003 (ip), vehicle: carboxymethylcellulose (CMC)
  T/C: 96 % of control
[3]
  T/C: 87 % of control
dose: 400.0 mg/kg/injection, schedule: Q01DX009 (ip), vehicle: carboxymethylcellulose (CMC)
  T/C: 92 % of control and 88 % of control
dose: 400.0 mg/kg/injection, schedule: Q04DX002 (ip), vehicle: carboxymethylcellulose (CMC)
  T/C: 93 % of control
dose: 400.0 mg/kg/injection, schedule: Q04DX003 (ip), vehicle: carboxymethylcellulose (CMC)
  T/C: 91 % of control

## CCN(CC)CCCC(C)Nc1cccc2c1C(=O)c1ccccc1C2=O (stereo unspecified)
dose: 25.0 mg/kg/injection, schedule: Q01DX009 (ip), vehicle: saline
  T/C: 100 % of control
dose: 25.0 mg/kg/injection, schedule: Q04DX002 (ip), vehicle: saline
  T/C: 95 % of control
dose: 50.0 mg/kg/injection, schedule: Q01DX009 (ip), vehicle: saline
  T/C: 93 % of control
dose: 50.0 mg/kg/injection, schedule: Q04DX002 (ip), vehicle: saline
  T/C: 92 % of control
dose: 100.0 mg/kg/injection, schedule: Q01DX009 (ip), vehicle: saline
  T/C: 93 % of control
[9]
  T/C: 100 % of control and 92 % of control

## [O-]c1c[n+](-c2ccc(Cl)cc2Cl)no1
dose: 50.0 mg/kg/injection, schedule: Q04DX002 (ip), vehicle: Klucel (hydroxypropylcellulose) (HPC)
  T/C: 100 % of control
[4]
  T/C: 100 % of control
[16]
  T/C: 106 % of control
[17]
  T/C: 103 % of control

## CC(=O)NC1C(C)OC2COC(C)(C)OC2C1C (stereo unspecified)
dose: 100.0 mg/kg/injection, schedule: Q01DX001 (ip), vehicle: saline with Tween-80
  T/C: 100 % of control
dose: 200.0 mg/kg/injection, schedule: Q01DX001 (ip), vehicle: saline with Tween-80
  T/C: 100 % of control
dose: 400.0 mg/kg/injection, schedule: Q01DX001 (ip), vehicle: saline with Tween-80
  T/C: 104 % of control

## CCOCCOC(=O)c1ccc(C(=N)OCC)cc1
[13]
  T/C: 90 % of control
[14]
  T/C: 90 % of control
[15]
  T/C: 86 % of control

## COc1cc2c(cc1OC)C(C)=[N+](C)CC2
[10]
  T/C: 101 % of control
[11]
  T/C: 103 % of control
[12]
  T/C: 106 % of control

## CCCCOC(=O)C(N)Cc1ccc(OC)c(N(CCCl)CCCl)c1 (stereo unspecified)
dose: 0.6 mg/kg/injection, schedule: Q01DX009 (ip), vehicle: saline
  T/C: 93 % of control
dose: 0.75 mg/kg/injection, schedule: Q01DX001 (ip), vehicle: saline
  T/C: 108 % of control
dose: 1.3 mg/kg/injection, schedule: Q01DX009 (ip), vehicle: saline
  T/C: 191 % of control
dose: 1.5 mg/kg/injection, schedule: Q01DX001 (ip), vehicle: saline
  T/C: 118 % of control
dose: 2.0 mg/kg/injection, schedule: Q01DX009 (ip), vehicle: saline
  T/C: 162 % of control
dose: 2.6 mg/kg/injection, schedule: Q01DX001 (ip), vehicle: saline
  T/C: 109 % of control
dose: 3.0 mg/kg/injection, schedule: Q01DX009 (ip), vehicle: saline
  T/C: 107 % of control
dose: 6.0 mg/kg/injection, schedule: Q01DX001 (ip), vehicle: saline
  T/C: 118 % of control
dose: 12.0 mg/kg/injection, schedule: Q01DX001 (ip), vehicle: saline
  T/C: 120 % of control

## CCCCCCCCCCCCCCC(S(=O)(=O)CC)S(=O)(=O)CC
[5]
  T/C: 95 % of control
[7]
  T/C: 100 % of control
[8]
  T/C: 90 % of control

From PubChem BioAssay AID248 (DTP/NCI, 2004)
